The text below walks through data of US5504103A, “Inhibition of phosphatidylinositol 3-kinase with 17 β-hydroxywortmannin and analogs thereof” (Eli Lilly and Company, priority 1993, dated 1996).

SMILES strings stand for the structures. Read-outs that look alike come from different tables or passages of the source.

Test [1] deals with bovine brain purified PI 3-kinase. Description: Assay of purified PI 3-kinase activity (32P incorporation into phosphatidylinositol, TLC/scintillation). The class given is biochemical. On the procedure:
In another, preferred, method, PI 3-kinase was prepared from bovine brain. Two bovine brains (wet weight about 900 g) were obtained from a local slaughterhouse within minutes of slaughter, packed on ice, and homogenized within one hour. Brains were trimmed of excess fat and blood vessels and then homogenized using a Tekmar Tissuemizer (Cincinnati, Ohio) at 4° C. in 20 mM of Tris(pH 8.3) containing 250 mM of sucrose, 6 mM of β-mercaptoethanol, 1 μg/ml of leupeptin, 1 μg/ml of pepstatin A, 0.4 mM of PMSF, and 1 mM of MgCl2.
Following centrifugation for 60 minutes at 10,000×g, the pH of the supernatant (about 1200 mL) was lowered to 5.75 using dropwise addition of 1M acetic acid at 4° C. After stirring for an additional 15 minutes at 4° C., the solution was centrifuged for 60 minutes at 13,500×g. The supernatant was discarded. Pellets were resuspended in Buffer A (20 mM of Tris, pH 8.3, containing 6 mM of β-mercaptoethanol, 0.1 mM of ethylene glycol-bis(β-aminoethyl ether) N,N,N',N'-tetraacetic acid (EGTA), 1 μg/mL of leupeptin, 1 μg/mL of pepstatin A, and 1 mM of MgCl2), and loaded onto a Fast Flow Q Sepharose column (300 ml) at a flow rate of 5 mL/min at 4° C. […]
PI 3-kinase activity was measured as previously described by Matter, W. F., et al., Biochemical and Biophysical Research Communications, 186: 624-631 (1992). […]

The test system of the next test is PI 4-kinase. The test can be described thus: Effect on PI 4-kinase. In kind it is biochemical.

Usually IC50 stands for the concentration that gives 50% inhibition. As to `COC[C@H]1OC(=O)c2coc3c2[C@@]1(C)C1=C(C3=O)[C@@H]2CC[C@H](O)[C@@]2(C)C[C@H]1OC(C)=O` [17β-hydroxywortmannin], the IC50 in test [1] came out at 0.2 ng/mL; in test [1] (molar value printed in parentheses, read-out: IC50), 460 pM. Moreover, the “effect on PI 4-kinase” value with PI 4-kinase was “no effect”.
